Test: Decrease in BHT content on a stent due to each manufacturing step (FIG. 1)
Assay type: physicochemical
Details: for reduction of the amount of BHT present in the drug reservoir layer: everolimus/BHT Xience V stent
Description: FIG. 1 is a graph showing the decrease in BHT content on a stent due to each step in the manufacturing process in which a macrocyclic triene lactone and BHT are present.
For example, with regard to the above-mentioned Xience V stent, the process steps for coating the stent include spray coating a drug reservoir layer solution comprising everolimus and BHT onto a stent, which includes a primer layer, then drying the coated stent at an elevated temperature, mounting the stent on a delivery catheter and, finally, sterilizing the mounted stent/catheter. […] FIG. 1 relates to a stent comprising everolimus as the macrocyclic triene lactone and BHT as the antioxidant stabilizer but it is understood that similar if not identical results would be observed if a different macrocyclic triene lactone were used with BHT. Likewise it is expected that similar results would be obtained in terms of the magnitude of the effect at each step of a different antioxidant stabilizer were used.
Calculation of the proper amount of BHT to include with everolimus on a stent to arrive at a finished catheter/stent product that has the desired amount of residual BHT, i.e., about 0.001% to about 0.01% w/w based on the weight of everolimus on the stent, can be accomplished in two ways. At one extreme is stoichiometric reduction in the amount of BHT on the stent as the fabrication steps progress. In this approach, the amount of BHT drops by a constant amount at each fabrication step independent of the starting amount of BHT present. At the other extreme is a percentage drop where amount of the BHT decreases by the same percentage in each fabrication step, likewise independent of starting amount of BHT. Table 1 exemplifies these extremes compared to the known loss of BHT using the current […] stent and everolimus, which contains 0.20% (w/w) of BHT based on the weight of everolimus.
Thus, the fabrication process shown in FIG. 1 affords a drop in the amount of BHT from 0.2% in the starting material down to approximately 0.044% in the finished product. To achieve a final amount of BHT that is between the presently preferred […] and 0.01%, assuming the same proportional decrease in the amount of BHT, a starting amount in the coating solvent would be about 0.0455% (w/w) or less. On the other hand, assuming the same absolute decrease in the amount of BHT present in the finished product (stoichiometric loss), would require something less than about 0.166% (w/w) BHT in the coating solvent. Of course, a BHT reduction process that is neither stoichiometric nor proportional is possible, in which case the starting amount of BHT on the stent would be between the two extremes. It is clear, however, that beginning with about 0.0166% (w/w) BHT based on everolimus would in all instances result in a finished product have less that 0.01% (w/w) of BHT, an amount that would for all intents and purposes result in an insignificant exposure of a patient to the antioxidant.

## Cc1cc(C(C)(C)C)c(O)c(C(C)(C)C)c1 [BHT, butylated hydroxytoluene]
Catheter mounting step
  reduction of the amount of BHT present in the drug reservoir layer: about 1%
Current XV process, 0.20% BHT initially provided in everolimus
  % Antioxidant (w/w, based on everolimus) in finished product: approximately 0.044 % (w/w, based on everolimus)
Drying step at elevated temperature
  reduction of the amount of BHT present in the drug reservoir layer: about 9%
Ethylene oxide sterilization step
  reduction of the amount of BHT present in the drug reservoir layer: about 64%
follow-up ethylene oxide sterilization on the already sterilized catheter/stent
  additional reduction of BHT: 30%
Spray coating step
  reduction of the amount of BHT present in the drug reservoir layer: about 61%

— US20140255451A1, “Implantable Medical Device Comprising A Macrocyclic Triene Lactone Drug And Minimal Antioxidant Stabilizer And Method Of Fabrication” (ABBOTT CARDIOVASCULAR SYSTEMS INC., priority 2013, published 2014)
